Data on four compounds can be found in patent US20110111021A1, “PHARMACEUTICAL PREPARATION” (HANALL BIOPHARMA CO., LTD., priority 2008, published 2011).

For series [1] the following is noted: cited from earlier work.
Series [2] in a line: Pharmacokinetic evaluation of aliskiren and atorvastatin in rats (animal test). The settings on record: SD rats, oral, once a day for 8 days. In kind it is in vivo. How it is done:
As an experiment to confirm the effects of the invention, an animal test was carried out as follows, in order to confirm the effects of conventional combined administration and inventive chronotherapeutic administration of pharmacologically active ingredients, aliskiren as a renin inhibitor and atorvastatin as an HMG-CoA reductase inhibitor.
1) Title: Pharmacokinetic evaluation of aliskiren and atorvastatin in a hypertensive animal model.
2) Object: It is intended to verify through the chronotherapeutic administration-based pharmacokinetic changes the fact that the problem of pharmacokinetic interaction between different drugs upon simultaneous administration of drug groups metabolized by the same hepatic enzyme can be solved by controlled release of the drugs.
1. Test group: Animals were grouped into two groups (n=6), a group receiving simultaneous administration of aliskiren/atorvastatin, and a group receiving chronotherapeutic administration of aliskiren/atorvastatin.
2. Administration route: Forced intragastric administration via an oral sonde.
3. […]
5. Administration volume: 5 mL/kg based on the body weight of animals measured on the day of administration. […]

For series [3] the following is noted: concurrent administration of aliskiren and atorvastatin; cited from earlier work.
The target of series [4] is cytochrome P450 3A4 (Homo sapiens, UniProt P08684). The settings on record: in vitro experiments; cited from earlier work.
Series [5] relates to hepatic enzyme cytochrome P450. The conditions noted are these: cited from earlier work.

A word on the bioavailability: it is the share of a dose that reaches the circulation, judged against a reference dose that is usually intravenous. For orientation: half-life means the time needed for the level to fall by half in the phase considered.

Sequence of cytochrome P450 3A4 (P08684 whole entry, species assumed): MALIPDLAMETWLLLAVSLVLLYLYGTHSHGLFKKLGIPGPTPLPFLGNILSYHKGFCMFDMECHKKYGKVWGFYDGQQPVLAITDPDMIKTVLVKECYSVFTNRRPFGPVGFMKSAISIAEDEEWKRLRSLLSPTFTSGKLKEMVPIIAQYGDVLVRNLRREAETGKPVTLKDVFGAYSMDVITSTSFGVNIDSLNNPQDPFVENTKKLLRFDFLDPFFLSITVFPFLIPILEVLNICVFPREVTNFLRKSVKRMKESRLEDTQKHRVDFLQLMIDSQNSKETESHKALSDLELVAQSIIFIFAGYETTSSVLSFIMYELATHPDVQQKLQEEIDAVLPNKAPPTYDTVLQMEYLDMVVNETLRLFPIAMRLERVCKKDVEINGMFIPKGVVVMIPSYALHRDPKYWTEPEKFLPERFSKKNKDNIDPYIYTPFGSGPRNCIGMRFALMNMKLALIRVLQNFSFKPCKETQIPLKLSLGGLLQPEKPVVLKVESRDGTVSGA

On to `CC(C)C[C@H](O)[C@H](O)[C@H](CC1CCCCC1)NC(=O)[C@H](Cc1cscn1)NC(=O)[C@H](Cc1ccccc1)CS(=O)(=O)N1CCN(C)CC1` [zankiren], for which, in series [1] (in vivo), the “bioavailability (in words)” value is given as “low” and the “half-life (in words)” value is given as “short”.
Turning to `CC(C)(C)S(=O)(=O)C[C@@H](Cc1ccccc1)C(=O)N[C@@H](Cc1cnc[nH]1)C(=O)N[C@@H](CC1CCCCC1)[C@@H](O)[C@@H](O)C1CC1` [remikiren], in series [1] (in vivo), the “bioavailability (in words)” value is “low” and the “half-life (in words)” value is “short”.
As to `COc1ccc(C[C@H](NC(=O)CC(C)(C)N)C(=O)N[C@@H](Cc2cnc[nH]2)C(=O)N[C@@H](CC2CCCCC2)[C@@H](O)[C@@H](O)CC(C)C)cc1` [enalkiren], in series [1] (in vivo), the “bioavailability (in words)” value is given as “low” and the “half-life (in words)” value was “short”.
Consider `COCCCOc1cc(C[C@@H](C[C@H](N)[C@@H](O)C[C@H](C(=O)NCC(C)(C)C(N)=O)C(C)C)C(C)C)ccc1OC` [aliskiren, 2(S),4(S),5(S),7(S)-N-(3-amino-2,2-dimethyl-3-oxopropyl)-2,7-di(1-methylethyl)-4-hydroxy-5-amino-8-[4-methoxy-3-(3-methoxy-propoxy)phenyl]-octanamide], for which the “blood level of aliskiren compared to the single administration group” value in series [2] (aliskiren 300 mg/kg and atorvastatin 80 mg/kg simultaneously) is “significant increase”. The “blood aliskiren level compared to the single administration group” value in series [2] (aliskiren 300 mg/kg given 4 hours after atorvastatin 80 mg/kg (chronotherapeutic)) was “equivalent to that of the single administration group”. In series [1] (in vivo), the bioavailability was not above 2% and the half-life was 24 h. In addition, in series [1] (when high-fat diet is ingested), the decrease in bioavailability was 71% and the “decrease in peak blood level” value is 85%. The “increase in blood aliskiren level” value in series [3] is 50%. Besides, in series [4], the “metabolism by cytochrome P450 3A4” value is “metabolized by cytochrome P450 3A4”. In addition, in series [5], the “inhibition or induction of hepatic enzyme cytochrome P450” value is recorded as “does not inhibit or induce”.
